In ChEMBL document CHEMBL5523702, “Synthesis and structure-activity optimization of azepane-containing derivatives as PTPN2/PTPN1 inhibitors” (Eur J Med Chem, 2024):
Converted amounts (≈) assume the structure as drawn.

What was measured:
[1] = Cmax in mouse at 10 mg/kg, po; assay type: ADME, organism-based; conditions: in vivo
[2] = Inhibition of PTPN2 in IFN-gamma induced mouse B16-F10 cells; assay type: cell-based
[3] = AUC (0 to t) in mouse at 10 mg/kg, po; assay type: ADME, organism-based; conditions: in vivo
[4] = Half life in mouse at 10 mg/kg, po; assay type: ADME, organism-based; conditions: in vivo
[5] = biological target: T1, Tyrosine-protein phosphatase non-receptor type 2 (Homo sapiens, UniProt P17706); assay: Inhibition of human PTPN2 using DiFMUP as substrate by fluorescence based phosphatase assay
T1 sequence (P17706 whole entry): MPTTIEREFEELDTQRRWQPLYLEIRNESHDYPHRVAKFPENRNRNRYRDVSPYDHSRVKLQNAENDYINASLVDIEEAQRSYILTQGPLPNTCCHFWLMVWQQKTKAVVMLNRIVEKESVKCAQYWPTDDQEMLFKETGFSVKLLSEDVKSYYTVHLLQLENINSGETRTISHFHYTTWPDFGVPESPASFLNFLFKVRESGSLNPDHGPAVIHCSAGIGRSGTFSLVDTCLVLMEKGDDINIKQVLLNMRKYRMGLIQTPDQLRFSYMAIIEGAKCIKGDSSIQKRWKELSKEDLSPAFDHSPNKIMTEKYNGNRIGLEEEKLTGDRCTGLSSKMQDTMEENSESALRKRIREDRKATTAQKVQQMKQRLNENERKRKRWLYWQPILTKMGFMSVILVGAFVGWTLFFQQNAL

[6] = Cmax in dog at 2 mg/kg, po; assay type: ADME, organism-based, Canis lupus familiaris; conditions: in vivo
[7] = Half life in rat at 10 mg/kg, po; assay type: ADME, organism-based; conditions: in vivo
[8] = Volume of distribution at steady state in dog at 1 mg/kg, iv; assay type: ADME, organism-based, Canis lupus familiaris; conditions: in vivo, read-out: Vdss
[9] = Volume of distribution at steady state in rat at 1 mg/kg, iv; assay type: ADME, organism-based; conditions: in vivo, read-out: Vdss
[10] = Clearance in rat assessed as liver blood flow at 1 mg/kg, iv; assay type: ADME, organism-based; conditions: in vivo
[11] = Clearance in dog assessed as liver blood flow at 1 mg/kg, iv; assay type: ADME, organism-based, Canis lupus familiaris; conditions: in vivo
[12] = Plasma protein binding in rat assessed as unbound fraction; assay type: ADME, cell-free
[13] = Cmax in rat at 10 mg/kg, po; assay type: ADME, organism-based; conditions: in vivo
[14] = Cmax in mouse at 50 mg/kg, po; assay type: ADME, organism-based; conditions: in vivo
[15] = Plasma protein binding in mouse assessed as unbound fraction; assay type: ADME, cell-free
[16] = Plasma protein binding in human assessed as unbound fraction; assay type: ADME, cell-free
[17] = biological target: T2, Tyrosine-protein phosphatase non-receptor type 1 (Homo sapiens, UniProt P18031); assay: Inhibition of human PTP1B
T2 sequence (P18031 whole entry): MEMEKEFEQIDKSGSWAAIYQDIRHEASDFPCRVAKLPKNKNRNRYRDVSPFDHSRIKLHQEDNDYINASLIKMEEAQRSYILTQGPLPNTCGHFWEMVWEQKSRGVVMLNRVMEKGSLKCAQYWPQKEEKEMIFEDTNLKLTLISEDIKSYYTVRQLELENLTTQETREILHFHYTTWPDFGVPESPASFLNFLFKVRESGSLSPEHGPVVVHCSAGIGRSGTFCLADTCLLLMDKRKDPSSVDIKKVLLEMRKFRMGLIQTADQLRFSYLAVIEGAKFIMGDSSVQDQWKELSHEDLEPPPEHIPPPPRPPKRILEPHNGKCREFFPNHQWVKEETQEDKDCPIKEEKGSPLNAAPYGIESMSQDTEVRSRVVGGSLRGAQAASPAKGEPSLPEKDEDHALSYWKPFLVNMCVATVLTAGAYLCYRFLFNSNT

[18] = Oral bioavailability in mouse at 50 mg/kg; assay type: ADME, organism-based; conditions: in vivo
[19] = Volume of distribution at steady state in mouse at 1 mg/kg, iv; assay type: ADME, organism-based; conditions: in vivo, read-out: Vdss
[20] = Half life in dog at 2 mg/kg, po; assay type: ADME, organism-based, Canis lupus familiaris; conditions: in vivo
[21] = Oral bioavailability in dog at 2 mg/kg; assay type: ADME, organism-based, Canis lupus familiaris; conditions: in vivo
[22] = Oral bioavailability in rat at 10 mg/kg; assay type: ADME, organism-based; conditions: in vivo
[23] = AUC (0 to t) in dog at 2 mg/kg, po; assay type: ADME, organism-based, Canis lupus familiaris; conditions: in vivo
[24] = Toxicity in C57BL/6J mouse assessed as effect on body weight at 30 mg/kg, po BID measured after 19 days; assay type: organism-based; conditions: in vivo, 456 h, time 19 day
[25] = Clearance in mouse assessed as liver blood flow at 1 mg/kg, iv; assay type: ADME, organism-based; conditions: in vivo
MC-38 = assay: Antitumor activity in mouse MC38 cells xenografted in C57BL/6J mouse model assessed as tumor growth inhibition at 30 mg/kg, po BID administered for 19 days relative to control; assay type: functional; conditions: MC-38, 456 h, time 19 day, read-out: TGI
[26] = Oral bioavailability in mouse at 10 mg/kg; assay type: ADME, organism-based; conditions: in vivo
[27] = Half life in mouse at 50 mg/kg, po; assay type: ADME, organism-based; conditions: in vivo
[28] = AUC (0 to t) in mouse at 50 mg/kg, po; assay type: ADME, organism-based; conditions: in vivo
[29] = biological target: T1, Tyrosine-protein phosphatase non-receptor type 2; assay: Binding affinity to human PTPN2 assessed as dissociation constant measured upto 300 secs by SPR analysis
[30] = AUC (0 to t) in rat at 10 mg/kg, po; assay type: ADME, organism-based; conditions: in vivo
[31] = Apparent permeability of compound in human Caco-2 cells across apical to basolateral side
[32] = Kinetic solubility of the compound at pH 7.4; conditions: buffer
[33] = Apparent permeability of compound in human Caco-2 cells across basolateral to apical side
[34] = Cmax in mouse at 1 mg/kg, iv; assay type: ADME, organism-based; conditions: in vivo
[35] = Half life in mouse at 1 mg/kg, iv; assay type: ADME, organism-based; conditions: in vivo
[36] = AUC (0 to t) in mouse at 1 mg/kg, iv; assay type: ADME, organism-based; conditions: in vivo
[37] = Efflux ratio of apparent permeability in human Caco-2 cells across basolateral to apical side over apical to basolateral side
[38] = Solubility of compound in FeSSIF at pH 7.4
[39] = Solubility of compound in FaSSIF at pH 7.4

## O=C1CN(c2c(O)cc3c(c2F)CCN(CCCC2CC2)CC3)S(=O)(=O)N1
[1]
  Cmax: 621 ng/mL
[2]; Mus musculus, B16-F10
  IC50: 247 nM
[3]
  AUC(0-t): 3480 ng·h/mL
[4]
  half-life: 4.55 h
[5]
  IC50: 4.5 nM

## CCN1CCc2cc(O)c(N3CC(=O)NS3(=O)=O)c(F)c2CC1
[1]
  Cmax: 4750 ng/mL
[6]
  Cmax: 402 ng/mL
[7]
  half-life: 2.37 h
[8]
  Vd: 0.35 L/kg
[9]
  Vd: 0.26 L/kg
[10]
  LBF: 15%
[11]
  LBF: 14.1%
[12]
  fraction unbound: 0.815
[13]
  Cmax: 368 ng/mL
[14]
  Cmax: 17800 ng/mL
[15]
  fraction unbound: 0.884
[16]
  fraction unbound: 0.804
[17]
  IC50: 3.09 nM
[18]
  bioavailability: 93%
[19]
  Vd: 0.4 L/kg
[2]; Mus musculus, B16-F10
  IC50: 212 nM
[20]
  half-life: 1.31 h
[21]
  bioavailability: 19%
[22]
  bioavailability: 19%
[23]
  AUC(0-t): 1430 ng·h/mL
[24]
  Activity: Non-Toxic
[3]
  AUC(0-t): 20900 ng·h/mL
[25]
  LBF: 12.7%
MC-38
  inhibition in vivo at 30 mg/kg: 89%
[26]
  bioavailability: 140%
[27]
  half-life: 2.1 h
[4]
  half-life: 2.37 h
[28]
  AUC(0-t): 69200 ng·h/mL
[29]
  Kd: 8.7 nM
[30]
  AUC(0-t): 1940 ng·h/mL
[5]
  IC50: 9.3 nM

## O=C1CN(c2c(O)cc3c(c2F)CCN(CC2CC2)CC3)S(=O)(=O)N1
[1]
  Cmax: 899 ng/mL
[31]
  Papp A→B: 0.28 ×10⁻⁶ cm/s
[15]
  fraction unbound: 0.801
[16]
  fraction unbound: 0.638
[32]
  solubility kinetic: 202 µM (≈ 74.6 µg/mL)
[2]; Mus musculus, B16-F10
  IC50: 399 nM
[33]
  Papp B→A: 0.18 ×10⁻⁶ cm/s
[3]
  AUC(0-t): 5140 ng·h/mL
[4]
  half-life: 4.34 h
[5]
  IC50: 6.04 nM

## O=C1CN(c2c(O)cc3c(c2F)CCN(CC(F)F)CC3)S(=O)(=O)N1
[2]; Mus musculus, B16-F10
  IC50: 5330 nM
[5]
  IC50: 100 nM

## O=C1CN(c2c(O)cc3c(c2F)CCNCC3)S(=O)(=O)N1
[2]; Mus musculus, B16-F10
  IC50: 350 nM
[5]
  IC50: 19.7 nM

## CN1CCc2cc(O)c(N3CC(=O)NS3(=O)=O)c(F)c2CC1
[1]
  Cmax: 2290 ng/mL
[31]
  Papp A→B: < 0.48 ×10⁻⁶ cm/s
[12]
  fraction unbound: 0.874
[15]
  fraction unbound: 0.852
[16]
  fraction unbound: 0.998
[2]; Mus musculus, B16-F10
  IC50: 461 nM
[34]
  Cmax: 3200 ng/mL
[3]
  AUC(0-t): 7980 ng·h/mL
[35]
  half-life: 0.9 h
[36]
  AUC(0-t): 1490 ng·h/mL
[4]
  half-life: 2.22 h
[5]
  IC50: 4.5 nM

## CC(C)N1CCc2cc(O)c(N3CC(=O)NS3(=O)=O)c(F)c2CC1
[2]; Mus musculus, B16-F10
  IC50: 378 nM
[5]
  IC50: 9.2 nM

## O=C1CN(c2c(O)cc3c(c2F)CCN(CCC2CC2)CC3)S(=O)(=O)N1
[1]
  Cmax: 328 ng/mL
[2]; Mus musculus, B16-F10
  IC50: 117 nM
[3]
  AUC(0-t): 1320 ng·h/mL
[4]
  half-life: 4.64 h
[5]
  IC50: 4.3 nM

## CCC1Cc2c(cc(O)c(N3CC(=O)NS3(=O)=O)c2F)CCN1 (racemic)
[2]; Mus musculus, B16-F10
  IC50: 425 nM
[5]
  IC50: 9.73 nM

## CC1Cc2c(cc(O)c(N3CC(=O)NS3(=O)=O)c2F)CCN1 (racemic)
[1]
  Cmax: 392 ng/mL
[3]
  AUC(0-t): 1360 ng·h/mL
[4]
  half-life: 1.25 h

## CC1Cc2c(cc(O)c(N3CC(=O)NS3(=O)=O)c2F)CCN1CC1CC1 (racemic)
[2]; Mus musculus, B16-F10
  IC50: 1030 nM
[5]
  IC50: 28.1 nM

## CCC1Cc2c(cc(O)c(N3CC(=O)NS3(=O)=O)c2F)CCN1C (racemic)
[2]; Mus musculus, B16-F10
  IC50: 17700 nM
[5]
  IC50: 75.5 nM

## CC1Cc2c(cc(O)c(N3CC(=O)NS3(=O)=O)c2F)CCN1C (racemic)
[2]; Mus musculus, B16-F10
  IC50: 669 nM
[5]
  IC50: 17.4 nM

## CC1Cc2c(cc(O)c(N3CC(=O)NS3(=O)=O)c2F)CCN1 (stereo in doubt; 10a)
[2]; Mus musculus, B16-F10
  IC50: 276 nM
[5]
  IC50: 5 nM

## CC1Cc2c(cc(O)c(N3CC(=O)NS3(=O)=O)c2F)CCN1 (stereo in doubt; 10b)
[2]; b16-f10
  IC50: 455 nM
[5]
  IC50: 17.4 nM

## CC(C)CCN[C@@H]1CCc2cc(O)c(N3CC(=O)NS3(=O)=O)c(F)c2C1 [OSUNPROTAFIB]
[1]
  Cmax: 78 ng/mL
[6]
  Cmax: 67 ng/mL
[37]
  efflux ratio: 0.065
[8]
  Vd: 0.31 L/kg
[9]
  Vd: 0.33 L/kg
[31]
  Papp A→B: 1.43 ×10⁻⁶ cm/s
[10]
  LBF: 24.9%
[11]
  LBF: 20.9%
[12]
  fraction unbound: 0.896
[13]
  Cmax: 38 ng/mL
[14]
  Cmax: 278 ng/mL
[15]
  fraction unbound: 0.978
[38]
  solubility: 223 µM (≈ 86 µg/mL)
[16]
  fraction unbound: 0.585
[17]
  IC50: 0.69 nM
[18]
  bioavailability: 9%
[19]
  Vd: 0.68 L/kg
[32]
  solubility kinetic: 204 µM (≈ 78.6 µg/mL)
[2]; Mus musculus, B16-F10
  IC50: 44 nM
[20]
  half-life: 3.41 h
[21]
  bioavailability: 6%
[39]
  solubility: 206 µM (≈ 79.4 µg/mL)
[34]
  Cmax: 1860 ng/mL
[22]
  bioavailability: 1.4%
[33]
  Papp B→A: 0.093 ×10⁻⁶ cm/s
[23]
  AUC(0-t): 319 ng·h/mL
[3]
  AUC(0-t): 903 ng·h/mL
[25]
  LBF: 22.1%
[35]
  half-life: 1.13 h
[26]
  bioavailability: 11%
[36]
  AUC(0-t): 851 ng·h/mL
[27]
  half-life: 4.86 h
[4]
  half-life: 4.21 h
[28]
  AUC(0-t): 3820 ng·h/mL
[30]
  AUC(0-t): 173 ng·h/mL
[5]
  IC50: 2.2 nM
